Test results published in the supplement of paper PMC10307832.

Columns and labels:
Test in all cases: relative viability (nuclei count vs DMSO), 5 days (fraction); higher = more cells survive
BEN = system: BEN
How it was run: (§1)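 Cells from lung cancer lines were seeded into 1536-well plates and, one day later, dosed by pin tool. Treatments were either a single drug or a fixed dose of an anchor drug with five library-drug doses (not always all listed) in √10 steps. After 5 days, nuclei were stained in a one-step fixation (final 0.05% Triton X-100, 1% formaldehyde, 1 ug/ml Hoechst) and counted on 4× images, and relative viability is the treated-to-vehicle nuclei ratio, as the median of duplicate plates.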

ChaGo-K-1 = system: ChaGo-K-1
How it was run: as §1

EKVX = system: EKVX
How it was run: as §1

HCC-827 = system: HCC-827
How it was run: as §1

HOP-62 = system: HOP-62
How it was run: as §1

LCLC-103H = system: LCLC-103H
How it was run: as §1

LK-2 = system: LK-2
How it was run: as §1

LOU-NH91 = system: LOU-NH91
How it was run: as §1

LXF-289 = system: LXF-289
How it was run: as §1

NCI-H1355 = system: NCI-H1355
How it was run: as §1

NCI-H1437 = system: NCI-H1437
How it was run: as §1

NCI-H1666 = system: NCI-H1666
How it was run: as §1

NCI-H1944 = system: NCI-H1944
How it was run: as §1

NCI-H1993 = system: NCI-H1993
How it was run: as §1

NCI-H2126 = system: NCI-H2126
How it was run: as §1

NCI-H2170 = system: NCI-H2170
How it was run: as §1

NCI-H441 = system: NCI-H441
How it was run: as §1

NCI-H647 = system: NCI-H647
How it was run: as §1

NCI-H727 = system: NCI-H727
How it was run: as §1

PC-14 = system: PC-14
How it was run: as §1

RERF-LC-KJ = system: RERF-LC-KJ
How it was run: as §1

## Cc1csc(=NC2CCCCC2)n1/N=C/c1ccc(O)c(O)c1O [MIM1] + NC(=O)Nc1cc(-c2cccc(F)c2)sc1C(=O)N[C@H]1CCCNC1 [AZD7762] (partner 0.2 µM)
BEN; first compound 0.2 µM
  relative viability: 0.781
BEN; first compound 0.6325 µM
  relative viability: 0.645
BEN; first compound 2 µM
  relative viability: 0.67
BEN; first compound 6.325 µM
  relative viability: 0.707
BEN; first compound 20 µM
  relative viability: 0.336
ChaGo-K-1; first compound 0.2 µM
  relative viability: 0.869
ChaGo-K-1; first compound 0.6325 µM
  relative viability: 0.883
ChaGo-K-1; first compound 2 µM
  relative viability: 0.907
ChaGo-K-1; first compound 6.325 µM
  relative viability: 0.596
ChaGo-K-1; first compound 20 µM
  relative viability: 0.248
EKVX; first compound 0.2 µM
  relative viability: 0.697
EKVX; first compound 0.6325 µM
  relative viability: 0.616
EKVX; first compound 2 µM
  relative viability: 0.625
EKVX; first compound 6.325 µM
  relative viability: 0.599
EKVX; first compound 20 µM
  relative viability: 0.44
HCC-827; first compound 0.2 µM
  relative viability: 0.245
HCC-827; first compound 0.6325 µM
  relative viability: 0.235
HCC-827; first compound 2 µM
  relative viability: 0.165
HCC-827; first compound 6.325 µM
  relative viability: 0.189
HCC-827; first compound 20 µM
  relative viability: 0.304
HOP-62; first compound 0.2 µM
  relative viability: 0.557
HOP-62; first compound 0.6325 µM
  relative viability: 0.662
HOP-62; first compound 2 µM
  relative viability: 0.756
HOP-62; first compound 6.325 µM
  relative viability: 0.506
HOP-62; first compound 20 µM
  relative viability: 0.0832
LCLC-103H; first compound 0.2 µM
  relative viability: 0.691
LCLC-103H; first compound 0.6325 µM
  relative viability: 0.79
LCLC-103H; first compound 2 µM
  relative viability: 0.759
LCLC-103H; first compound 6.325 µM
  relative viability: 0.698
LCLC-103H; first compound 20 µM
  relative viability: 0.399
LK-2; first compound 0.2 µM
  relative viability: 0.423
LK-2; first compound 0.6325 µM
  relative viability: 0.287
LK-2; first compound 2 µM
  relative viability: 0.333
LK-2; first compound 6.325 µM
  relative viability: 0.324
LK-2; first compound 20 µM
  relative viability: 0.25
LOU-NH91; first compound 0.2 µM
  relative viability: 0.731
LOU-NH91; first compound 0.6325 µM
  relative viability: 0.779
LOU-NH91; first compound 2 µM
  relative viability: 0.677
LOU-NH91; first compound 6.325 µM
  relative viability: 0.637
LOU-NH91; first compound 20 µM
  relative viability: 0.279
LXF-289; first compound 0.2 µM
  relative viability: 1.07
LXF-289; first compound 0.6325 µM
  relative viability: 0.905
LXF-289; first compound 2 µM
  relative viability: 1.12
LXF-289; first compound 6.325 µM
  relative viability: 0.85
LXF-289; first compound 20 µM
  relative viability: 0.378
NCI-H1355; first compound 0.2 µM
  relative viability: 0.802
NCI-H1355; first compound 0.6325 µM
  relative viability: 0.69
NCI-H1355; first compound 2 µM
  relative viability: 0.814
NCI-H1355; first compound 6.325 µM
  relative viability: 0.529
NCI-H1355; first compound 20 µM
  relative viability: 0.673
NCI-H1437; first compound 0.2 µM
  relative viability: 1.02
NCI-H1437; first compound 0.6325 µM
  relative viability: 1.12
NCI-H1437; first compound 2 µM
  relative viability: 1.18
NCI-H1437; first compound 6.325 µM
  relative viability: 0.916
NCI-H1437; first compound 20 µM
  relative viability: 0.666
NCI-H1666; first compound 0.2 µM
  relative viability: 0.862
NCI-H1666; first compound 0.6325 µM
  relative viability: 0.789
NCI-H1666; first compound 2 µM
  relative viability: 0.829
NCI-H1666; first compound 6.325 µM
  relative viability: 0.7
NCI-H1666; first compound 20 µM
  relative viability: 0.519
NCI-H1944; first compound 0.2 µM
  relative viability: 0.511
NCI-H1944; first compound 0.6325 µM
  relative viability: 0.479
NCI-H1944; first compound 2 µM
  relative viability: 0.475
NCI-H1944; first compound 6.325 µM
  relative viability: 0.397
NCI-H1944; first compound 20 µM
  relative viability: 0.243
NCI-H1993; first compound 0.2 µM
  relative viability: 0.704
NCI-H1993; first compound 0.6325 µM
  relative viability: 0.761
NCI-H1993; first compound 2 µM
  relative viability: 0.73
NCI-H1993; first compound 6.325 µM
  relative viability: 0.569
NCI-H1993; first compound 20 µM
  relative viability: 0.35
NCI-H2126; first compound 0.2 µM
  relative viability: 0.934
NCI-H2126; first compound 0.6325 µM
  relative viability: 0.985
NCI-H2126; first compound 2 µM
  relative viability: 1.07
NCI-H2126; first compound 6.325 µM
  relative viability: 0.913
NCI-H2126; first compound 20 µM
  relative viability: 0.786
NCI-H2170; first compound 0.2 µM
  relative viability: 0.857
NCI-H2170; first compound 0.6325 µM
  relative viability: 0.826
NCI-H2170; first compound 2 µM
  relative viability: 0.759
NCI-H2170; first compound 6.325 µM
  relative viability: 0.368
NCI-H2170; first compound 20 µM
  relative viability: 0.158
NCI-H441; first compound 0.2 µM
  relative viability: 1.16
NCI-H441; first compound 0.6325 µM
  relative viability: 1.09
NCI-H441; first compound 2 µM
  relative viability: 1.17
NCI-H441; first compound 6.325 µM
  relative viability: 0.674
NCI-H441; first compound 20 µM
  relative viability: 0.386
NCI-H647; first compound 0.2 µM
  relative viability: 0.502
NCI-H647; first compound 0.6325 µM
  relative viability: 0.379
NCI-H647; first compound 6.325 µM
  relative viability: 0.409
NCI-H647; first compound 20 µM
  relative viability: 0.073
NCI-H727; first compound 0.2 µM
  relative viability: 0.663
NCI-H727; first compound 0.6325 µM
  relative viability: 0.573
NCI-H727; first compound 2 µM
  relative viability: 0.435
NCI-H727; first compound 6.325 µM
  relative viability: 0.528
NCI-H727; first compound 20 µM
  relative viability: 0.348
PC-14; first compound 0.2 µM
  relative viability: 0.353
PC-14; first compound 0.6325 µM
  relative viability: 0.244
PC-14; first compound 2 µM
  relative viability: 0.288
PC-14; first compound 6.325 µM
  relative viability: 0.311
PC-14; first compound 20 µM
  relative viability: 0.111
RERF-LC-KJ; first compound 0.2 µM
  relative viability: 0.957
RERF-LC-KJ; first compound 0.6325 µM
  relative viability: 0.917
RERF-LC-KJ; first compound 2 µM
  relative viability: 0.818
RERF-LC-KJ; first compound 6.325 µM
  relative viability: 0.687
RERF-LC-KJ; first compound 20 µM
  relative viability: 0.17
